Laboratory results: PMC12627862, “Therapeutic targeting of endothelial calcium signaling accelerates the resolution of lung injury” (Signal Transduction and Targeted Therapy, 2025)
Like-named read-outs stand apart in the source and are kept apart here. Starred links: 1 amine or outer side, 2 acyl side, 3 side chain; linkers in the order of their positions; H or OH if unused. Positions of bridges follow the written chain, without caps; N, C: chain ends. Non-standard residues stand in square brackets, D forms with d. Residues, ends and D or L forms follow the SMILES beside them. ξ: configuration not given here. X2 = C[C@@](CCCCC=[*:3])(N[*:1])C(=O)[*:2]; Oic = O=C(O)[C@@H]1C[C@@H]2CCCC[C@@H]2N1; GABOB(3R) = O=C(C[C@@H](O)CN[*:1])[*:2]; d(tBuAla) = CC(C)(C)C[C@@H](N)C(=O)O; dVal(3-OH) = CC(C)(O)[C@@H](N)C(=O)O; tBuAla = CC(C)(C)C[C@H](N)C(=O)O; ξVal(3-OH) = CC(C)(O)C(N)C(=O)O; R5 = C=CCCC[C@@](C)(N)C(=O)O; X1 = O=C(CC(O)CN[*:1])[*:2]; 4Amb = NCc1ccc(C(=O)O)cc1

Legend:
[1] = Aggregation / solubility at 1 mM; type: physicochemical; settings: summary calls it solubility at 1mM
In short: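 Solubility and aggregation of compounds were assessed experimentally at 1 mM. Lipophilicity was determined as octanol/water partition coefficient, logP(oct/wat).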

[2] = Lipophilicity of peptides, logP(oct/wat); type: physicochemical
In short: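 Shake-flask partition between n-octanol and phosphate buffer, each phase pre-saturated with the other; peptides dissolved in buffer, partitioned at several octanol:water ratios, shaken 1 h at room temperature. After equilibration both phases assayed for peptide; logP = log(octanol/water concentration ratio).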

[3] = target: EB3 interactions with IP3R3-GFP (Homo sapiens, UniProt Q9UPY8); experiment: Competitive binding: inhibition of EB3 interaction with IP3R3-GFP in vitro; type: biochemical; settings: 250 nM
Source text: We tested the efficacy of twenty-three compounds in inhibiting EB3 interactions with IP3R3-GFP via an in vitro approach developed by us[12],[13]. […] Guided by NMR studies, we predicted the binding pose of 109 to EB3 via AutoDock Vina[13],[24],[25].

[4] = system: human primary microvascular lung endothelial cells (HLMVECs); experiment: Peptide uptake in endothelial cells; type: cell-based
Method: We next analyzed the cell-penetrating properties of the selected compounds, hereafter referred to as vascular therapeutics (VT). The rate of uptake of 5’6-FAM (fluorescein)-labeled compounds by human primary microvascular lung endothelial cells (HLMVECs) was determined via confocal fluorescence live-cell imaging. FAM-labeled Myr-EBIN[13] and fluorescein alone were used as positive and negative controls, respectively. The t½ uptake and maximal uptake were determined from changes in the integrated fluorescence intensity over a 30 min period (Fig. 2a and Supplementary Fig. 1a). […] Like Myr-EBIN, compounds VT-107, -108 and -109 presented the highest uptake rates of 92.5 ± 5.0%, 82.5 ± 2.8% and 94.7 ± 4.9%, respectively, whereas the linear compound VT-101 was taken up less efficiently, with an average uptake of 58.4 ± 2.7% (Fig. 2a). […] The t½ uptake, however, varied between the tested compounds (Fig. 2b). The stapled compounds presented the shortest t½ uptake, whereas the linear compounds presented the longest t½ (Fig. 2b).
Peptide uptake in endothelial cells. The rate of peptide uptake by primary human microvascular endothelial cells was measured using 5’6FAM (fluorescein)-labeled peptides and confocal fluorescence live-cell imaging, with fluorescein alone used as a negative control. Changes in intracellular fluorescence for each peptide were monitored over time, and saponin, a detergent, was added at the end of the experiment to induce full uptake of the tested peptides by endothelial cells. The fluorescence intensity inside the cells was tracked over time, and the half-time uptake (t1/2) and maximum uptake were calculated.

[5] = Stability of selected EB3 inhibitors in human blood plasma; type: in vitro ADME
Method: Supplementary Table 3. Stability of selected EB3 inhibitors in human blood plasma. The indicated inhibitors were incubated with human plasma at 37 °C and samples were taken at the indicated time points. Plasma proteins were precipitated with ice-cold perchloric acid (60%); the concentration of compounds was measured in supernatant using a liquid chromatography-tandem mass spectrometry (LC-MS/MS). See also Figures 1 and 2.

[6] = Stability at various storage conditions; type: physicochemical; settings: for amount of peptide remaining after storage: phosphate-buffered sterile saline, 8 days, LC-MS/MS
Method: Stability assay of peptides in various storage conditions. Peptides were dissolved and stored in phosphate-buffered sterile saline at -20, 4, 37, and 60°C for 8 days. The amount of peptide remaining after the study was analyzed by LC-MS/MS.
Supplementary Table 5. Stability of selected compounds at various storage conditions. Preliminary accelerated storage stability at various temperature conditions for the selected inhibitors was tested in phosphate-buffered sterile saline at -20 °C, 4 °C, 37 °C and 60 °C for 8 days. See also Figures 1 and 2.

HLMVECs = experiment: Transendothelial electrical resistance (TEER) assay; type: cell-based, human; settings: 1 µM, 1 hour pretreatment, 50 nM α-thrombin; to the same extent as EBIN
[7] = system: mice challenged with a PAR-1 agonist peptide; experiment: PAR-1 agonist peptide-induced microvascular leakage in lung; type: in vivo, mouse; settings: i.v. 1 µmol/kg bw pretreatment; n = 5–7 mice per group
Method: The levels of EBA extravasation in the lungs of mice challenged with PAR-1 AP and treated with these compounds were similar to those observed in control mice treated with a control PAR-1 AP ([…]-NH2), in which the positions of the first two amino acids were reversed.
PAR-1 agonist peptide-induced microvascular leakage in lung. […] Mice treated with PAR-1 control peptide ([…]-NH2) was used as negative control. For Evan’s blue albumin extravasation, Evans’s blue-labeled albumin was administered at the same time as the PAR-1 AP. Vehicle-treated mice were used as treatment control.
Evans’ blue-labeled albumin extravasation. To evaluate vascular permeability in lung tissues, mice were injected intravenously with Evans' blue-labeled albumin (25 mg/kg) 30 minutes before the collection of lung tissues. The lungs were perfused via the right ventricle with warmed phosphate-buffered saline to remove intravascular dye, and the right atrium was excised to facilitate clearance. […] The optical density of the supernatant was measured spectrophotometrically at 620 nm (Evans Blue) and 740 nm (hemoglobin correction), with the dye content normalized to the wet weight of the lungs. Corrections for hemoglobin were made as follows: Corrected absorbance (Evans blue) = Absorbance (620) - (1.426 × Absorbance (740) + 0.03). […]

EB3 interactions with IP3R3-GFP, sequence (Q9UPY8 whole entry): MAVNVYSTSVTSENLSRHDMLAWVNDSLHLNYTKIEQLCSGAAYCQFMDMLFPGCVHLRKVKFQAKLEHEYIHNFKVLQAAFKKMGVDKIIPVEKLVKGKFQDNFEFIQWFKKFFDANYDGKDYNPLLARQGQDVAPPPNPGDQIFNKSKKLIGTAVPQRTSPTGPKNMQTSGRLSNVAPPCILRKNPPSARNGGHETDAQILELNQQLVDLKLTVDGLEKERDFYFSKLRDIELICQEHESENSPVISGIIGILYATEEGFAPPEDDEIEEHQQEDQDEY

CC(C)(C)C[C@@H]1NC(=O)C[C@@H](O)CNC(=O)[C@@H]2C[C@@H]3CCCC[C@@H]3N2C(=O)[C@H](CC(C)(C)C)NC(=O)c2ccc(cc2)CNC(=O)C(C(C)(C)O)NC(=O)[C@@H](Cc2ccccc2)NC1=O (stereo partly drawn) [compound 109, (1^2S,1^3aS,1^7aS,3S,10S,13R,16S,20R)-13-benzyl-20-hydroxy-10-(2-hydroxypropan-2-yl)-3,16-dineopentyl-1^2,1^3,1^3a,1^4,1^5,1^6,1^7,1^7a-octahydro-1^1H-4,8,11,14,17,22-hexaaza-1(1,2)-indola-6(1,4)-benzenacyclotricosaphane-2,5,9,12,15,18,23-heptaone.] (cyclo([4Amb][tBuAla][Oic][GABOB(3R)][tBuAla][dF][ξVal(3-OH)]))
Aggregation at 1mM [1]: weak signal | logD [2]: 0.73 | inhibition at 0.25 µM [3]: 58% | half-time uptake t1/2 [4]: 3.42 ± 0.01 min | penetration of the cell membrane [4]: able to penetrate the cell membrane without the addition of a cell internalization signal | remaining at 1.5 h ([5]; human, plasma): 90% | remaining at 20 h ([5]; human, plasma): 91% | storage stability [6]: stable | α-thrombin-induced changes in TEER (HLMVECs): attenuated | PAR-1-mediated capillary leakage in the lung (EBA extravasation) [7]: completely blocked

CC(C)(C)C[C@@H]1NC(=O)[C@](C)(NC(=O)c2ccc(CNC(=O)[C@H](N)C(C)(C)O)cc2)CCC/C=C\CCCC[C@@](C)(C(=O)N[C@H](CC(C)(C)C)C(=O)O)NC(=O)CC(O)CNC(=O)[C@@H]2C[C@@H]3CCCC[C@@H]3N2C1=O (stereo partly drawn) [compound 108, (2R)-2-((8S,18R,21S,23aS,27aS,28aS,Z)-18-(4-(((R)-2-amino-3-hydroxy-3-methylbutanamido)methyl)benzamido)-4-hydroxy-8,18-dimethyl-21-neopentyl-1,6,19,22-tetraoxo-1,2,3,4,5,6,7,8,9,10,11,12,15,16,17,18,19,20,21,22,23a,24,25,26,27,27a,28,28a-octacosahydro-[1,4,7,12]tetraazacyclotetracosino[4,5-a]indole-8-carboxamido)-4,4-dimethylpentanoic acid] (H-[dVal(3-OH)][4Amb][R5][tBuAla][Oic][X1][X2][d(tBuAla)]-OH; staple (Z) 3-7)
Aggregation at 1mM [1]: weak signal | logD ([2]; shake-flask n-octanol/phosphate buffer, mutually saturated, shaken 1 hour at room temperature, read-out: Log P (Octanol/Water)): 0.46 | inhibition at 0.25 µM [3]: 55% | uptake, percentage of the maximal values obtained following saponin treatment ([4]; 5’6-FAM-labeled compounds, HLMVECs, confocal live-cell imaging over 30 min, mean ± SEM, n = 16–45 cells per group): 82.5 ± 2.8% | half-time uptake t1/2 ([4]; 5’6-FAM-labeled compounds, HLMVECs, confocal live-cell imaging, n = 3 independent experiments): 0.36 ± 0.12 min | penetration of the cell membrane ([4]; 5’6-FAM-labeled compounds, HLMVECs, no cell internalization signal): able to penetrate the cell membrane without the addition of a cell internalization signal | remaining at 1.5 h ([5]; human plasma, 37 °C, 1.5 hr, perchloric acid (60%) precipitation, LC-MS/MS, read-out: compound remaining in human plasma): 80% | remaining at 20 h ([5]; human plasma, 37 °C, 20 hr, perchloric acid (60%) precipitation, LC-MS/MS, read-out: compound remaining in human plasma): 65% | amount of peptide remaining after storage ([6]; 4 °C): 102% | amount of peptide remaining after storage ([6]; 37 °C): 104% | amount of peptide remaining after storage ([6]; 60 °C): 104% | amount of peptide remaining after storage ([6]; -20 °C): 104% | storage stability ([6]; various storage and temperature conditions): stable | α-thrombin-induced changes in TEER (HLMVECs): attenuated | PAR-1-mediated capillary leakage in the lung (EBA extravasation) [7]: completely blocked
